In patent US9918968B2, “Rapamycin analogs targeting proteasome function in the treatment of cancer” (THE BOARD OF REGENTS OF THE UNIVERSITY OF TEXAS SYSTEM, priority 2013, dated 2018):

Key:
[1] = system: T1, human 20S proteasome, PGPH peptidase; experiment: PGPH peptidase activity of purified human 20S proteasome (CbzLLE-MCA); format: biochemical
T1 construct: purchased Enzo LifeSciences
Method: (§1) Human purified proteasome complexes were purchased from Enzo LifeSciences or Boston Biochemicals (19S complex). BODIPY-casein (Invitrogen/Molecular Probes) was used as a model protein substrate, with increasing fluorescence of BODIPY labeled peptide products of degradation monitored for up to 8 hours at 37° C. The peptidase activity of the enzyme was measured as arbitrary intensity units of the released fluorescent group 7-amino-4-methylcoumarin (AMC) from peptide substrates, as described. The common substrates specific for the three kinds of active sites: succinyl-LeuLeuValTyr-7-amido-4-methylcoumarin (Suc-LLVY-MCA; for the ChT-L activity; Bachem), butoxycarbonyl-LeuArgArg-MCA (BocLRR-MCA; for T-L; Bachem) and carbobenzoxy-LeuLeuGlu-MCA (CbzLLE-MCA; for PGPH; Enzo Life Sciences International, Inc.) were used at 100 μM final concentrations, unless stated otherwise (Gaczynska and Osmulski, 2005). Proteasome substrates, rapamycin, its derivatives, and competing peptides were stocked in DMSO and diluted 100-fold in the reaction mixtures. The Rpt5 and PA200 C-terminal peptides were synthesized in the Departmental Peptide Synthesis Core using the standard SPPS chemistry. To activate the latent 20S proteasome, 0.005% (final concentration) of sodium dodecyl sulfate (SDS) was used. The reactions were carried out in 96 well plates, with 2.3 nM proteasome and other components as indicated dissolved in 50 mM Tris-HCl buffer (pH 8.0) and incubated at 37° C. for up to 1 hour. The fluorescence of products was monitored every 2 minutes with a Fluoroskan Ascent plate reader. Reaction rates were calculated from smoothed linear segment of kinetic curves using OriginPro 8.6 (OriginLabs, Northampton, Mass.). For the determination of an inhibition type, at least six distinct substrate concentrations and two inhibitor concentrations were used. The kinetic parameters of inhibition were analyzed in terms of the Michaelis-Menten formalism using the enzyme kinetic module of SigmaPlot v.12 (Systat Software, Inc, San Jose, Calif.) to perform the respective calculations.
IC50 values (a drug concentration causing 50% inhibition of the indicated enzymatic activity) were calculated for ChT-L and PGPH peptidases. Kd (dissociation constant) and Bmax (maximal activation effect achieved; in % above the control activity) values were calculated for the T-L peptidase. Mean±SD from n=2 or 3 experiments, or data from representative experiments set in duplicates or triplicates, are presented in the table. All three peptidase activities changed by no more than ±20%, without a concentration-dependent trend, upon treatment with up to 10 μM of rapamycin unrelated mTOR inhibitors PI-103 or NVP-BEZ235, in two independent experiments.

[2] = system: T2, 20S core with 19S, 11S, tRpt5 or tPA200; experiment: Activation of 20S core ChT-L activity by α face ligands (19S, 11S, tRpt5, tPA200); format: biochemical, human; settings: 10 μM derivative
T2 construct: purchased Enzo LifeSciences (20S, 11S); Boston Biochemicals (19S complex)
Method: as §1
De novo assembly of 19S from subunits is a complex process assisted by chaperones. In vitro, and likely also in cells, the 26S can also be reconstructed from 20S and the already-assembled 19S particle in the presence of ATP (Smith et al., 2005). Enhancement of the peptidase activities of the core proteasome is an established test for efficiency of the in vitro reconstruction. […] In contrast, a pretreatment of 20S with 5 μM rapamycin before adding ATP and 19S totally abrogated the activation, leaving the proteasome almost 40% inhibited instead (FIG. 6).

[3] = system: HeLa.S3 cervical carcinoma cells; experiment: Live/dead cell count, HeLa.S3 cells; format: cell-based, human; settings: up to 500 nM, 48 hrs
Method: Culture Collection; ATCC) were cultured according to ATCC specifications: HeLa.S3 cervical adenocarcinoma, MCF7 breast adenocarcinoma, MDA-MB-231 breast adenocarcinoma (representing triple negative breast cancer), and RPMI 8226 myeloma. The cells were grown in 24 or 12-well cell culture plates. When the cells reached about 60% confluency (surface-growing HeLa.S3,MCF7 and MDA-MB-231) or a density of about 7×10^5 (suspension-growing RPMI 8226), the inhibitors dissolved in DMSO or the solvent (DMSO) diluted in respective culture medium were added and the cells were further cultured for additional 48 hours. […] The final concentration of the solvent was 1% (vol/vol). The number of live and dead cells after the treatment was approximated with calcein AM and ethidium homodimer (LiveDead test, Invitrogen) according to manufacturer's protocol, or by a Trypan Blue exclusion assay. In short, the cells after the treatment were washed three times with PBS and overlaid (surface-growing) or mixed (suspension-growing) with 4 microM calcein AM and 2 microM ethidium homodimer in PBS. Fluorescence of calcein and DNA-bound ethidium homodimer was measured with Fluoroskan Ascent plate reader, at 485 nm (excitation)/538 nm (emission) and 530 nm/619 nm, respectively. The cell counts were approximated using standard curves of live and digitonin-killed cells prepared for each strain. Alternatively, after cell treatment the medium was removed, the surface growing cells were overlaid with Trypan Blue solution, and the colorless (live) and blue-colored (dead) cells were counted under the inverted microscope.

mTOR = mTOR (Homo sapiens, UniProt P42345+P62942); settings: cited from earlier work

CO[C@@H](C[C@@H]1CC[C@@H](C)[C@](O)(C(=O)C(=O)N2CCCC[C@H]2C(=O)[O-])O1)/C(C)=C/C=C/C=C/[C@@H](C)C[C@@H](C)C(=O)[C@H](OC)[C@H](O)/C(C)=C/[C@@H](C)C(=O)/C=C/[C@H](C)C[C@@H]1CC[C@@H](O)[C@H](OC)C1.[Na+] [seco-rapamycin]
inhibition of post-acidic (PGPH) cleavages ([1]; 5 μM): ~50% | IC50 ([1]; latent human 20S proteasome): 6.45 ± 0.78 µM | lowering of activation by tRpt5 ([2]; 10 μM tRpt5): about 30% | inhibition of proteasome with or without tPA200 ([2]; presence or absence of 10 μM tPA200): about 40% | cytotoxicity [3]: did not reveal cytotoxicity | effect on mTOR function (mTOR): not to affect the mTOR function
